Laboratory results reported in PMC8123127, “Structural Bases for the Synergistic Inhibition of Human Thymidylate Synthase and Ovarian Cancer Cell Growth by Drug Combinations” (Cancers, 2021).
Like-named read-outs stand apart in the source and are kept apart here.

Experiments:
Experiment in all cases: cells
A2780 cells = tested on: A2780 cells; parameters: species or system 2008, C13*, A2780/CP; growth inhibition of human ovarian cancer cell lines after 72 h treatment, cell counts; settings: Homo sapiens, A2780, 72 h
Method: (§1) The drug concentrations used in the combinations were based on the IC50s. These are reported in Table S3 of the Supplementary Information. The effects of binary combinations were determined with both drug concentrations lower than their IC50s and were characterized in terms of the synergism quotient. […] With 5 μM 5FU alone, cell growth inhibitions were 24.7, 21.2, 28.3, and 27.1% for 2008, C13*, A2780, and A2780/CP, respectively. […] The bars represent the mean of duplicate cell counts on three separate experiments. A quotient > 1 indicates synergism, =1, additivity <1 antagonism. Error bars represent SEM.

2008 cells = tested on: 2008 cells; parameters: species or system C13*, A2780, A2780/CP; growth inhibition of human ovarian cancer cell lines after 72 h treatment, cell counts; settings: 72 h
Method: as §1

A2780/CP cells = tested on: A2780/CP cells; parameters: species or system 2008, C13*; growth inhibition of human ovarian cancer cell lines after 72 h treatment, cell counts; settings: A2780C/P, 72 h
Method: as §1

C13* cells = tested on: C13* cells; parameters: species or system 2008, A2780, A2780/CP; growth inhibition of human ovarian cancer cell lines after 72 h treatment, cell counts; settings: Homo sapiens, C13, 72 h
Method: as §1

| IC50 (A2780 cells; read-out: 5-FU (µM) IC50) [µM] | IC50 (A2780/CP cells; read-out: 5-FU (µM) IC50) [µM] | IC50 (A2780 cells; read-out: RTX (nM) IC50) [µM] | IC50 (A2780/CP cells; read-out: RTX (nM) IC50) [µM] | SMILES | IC50 (2008 cells; read-out: 5-FU (µM) IC50) [µM] | IC50 (C13* cells; read-out: 5-FU (µM) IC50) [µM] | IC50 (2008 cells; read-out: RTX (nM) IC50) [µM] | IC50 (C13* cells; read-out: RTX (nM) IC50) [µM] |
| --- | --- | --- | --- | --- | --- | --- | --- | --- |
| 9.5 ± 0.8 | 12.9 ± 1.1 | – | – | O=c1[nH]cc(F)c(=O)[nH]1 [5-FU, 5-fluorouracil] | 6.3 ± 0.4 | 12.4 ± 0.8 | – | – |
| – | – | 0.0086 ± 0.0012 | 0.0311 ± 0.0029 | Cc1nc(=O)c2cc(CN(C)c3ccc(C(=O)N[C@@H](CCC(=O)O)C(=O)O)s3)ccc2[nH]1 [RTX, N-[(5-{methyl[(2-methyl-4-oxo-1,4-dihydroquinazolin-6-yl)methyl]amino}-2-thienyl)carbonyl]-L-glutamic acid] | – | – | 0.0095 ± 0.001 | 0.0262 ± 0.003 |
